Source: patent US5270304A, “Therapeutic 2-alkynyl adenosine agent for ischemic diseases of the heart or brain” (priority 1988, dated 1993)

What was measured:
vertebral artery = assay: Vertebral artery blood flow increasing effect; assay type: in vivo, mongrel dogs; conditions: Canis lupus familiaris; anesthetized dogs, intraarterial into vertebral artery; 100% = increase by 100 μg/kg papaverine hydrochloride
Procedure: The chests of female and male adult mongrel dogs weighing 8 to 13 kg, under anesthesia by intravenous administration of pentobarbital sodium, were opened under artificial respiration along the median line to expose the left vertebral artery.
The test drug was injected intraarterially into the vertebral artery.

[1] = test system: atrioventricular conduction; assay: Effect on atrioventricular conduction (atrioventricular block appearance ratio); assay type: in vivo, guinea pigs; conditions: for Atrioventricular Block Appearance Ratio (Number of Animals Showing Appearance/Number of Animals Used): guinea pigs, second degree block, after intravenous 300 μg/kg
Procedure: Each of male guinea pigs weighing 360 to 600 g, after being anesthetized by intraperitoneal administration of 1.4 g/kg of urethane, was fixed on the back, and the trachea was cut open for ensuring airway, a polyethylene tube being inserted thereinto. The blood pressure was measured through a carrier amplifier by connecting the cannula inserted into the left common carotid artery to a pressure transducer. The electrocardiogram was recorded by means of a bioelectric amplifier according to the second induction method, and the PQ interval was measured from the electrocardiogram. The test drug was administered through the left femoral vein, and the presence or absence of appearance of atrioventricular block is represented by the appearance ratio of the second degree of atrioventricular block (number of animals showing appearance/number of animals used) by the test drug administration.

ICR mice [2] = assay: Brain protecting effect: normobaric hypoxia method; assay type: in vivo; conditions: 30 min before 96% N2/4% O2, (±S.E.), control 126.8 ±10.7
Procedure: When the brain falls into hypoxia by cerebral circulatory disorder, its function will be rapidly and irreversibly lost. Accordingly, the pharmacological activities of the drugs were evaluated with the extension time relative to the survival time of the test animals under hypoxia or anoxia induced by changing gas phase components or by a drug.
Evaluation of the pharmacological activity by the normobaric hypoxia method was conducted by following the method of Yasuda et al. (Arch. Int. Pharmacodyn, 233, 136-144 (1978)) as described below.
Animals used were 8 to 11 male ICR mice of 7 weeks age (Clea Japan) per group.
The mice were placed in a desiccator made of glass, and hypoxia was induced by passing a gas mixture of 96% N2 and 4% O2 at a flow rate of 5 liters/min. The time after the passing of the gas into the desiccator to the respiration arrest of each mouse was measured and defined as the survival time.
The test drug was administered intraperitoneally 30 minutes before the initiation of gas passing. The average survival times for the control group and the group to which the test drug was administered were calculated.
The test drug was suspended in a physiological saline containing 0.5% CMC (carboxymethyl cellulose), and the dosage was 0.1 ml per 10 g of body weight. To the mice of the control group was administered 0.5% of the CMC physiological saline in the same manner. The statistical analysis was conducted according to the student's t-test.

ICR mice [3] = assay: Brain protecting effect: potassium cyanide (KCN)-induced anoxia method; assay type: in vivo; conditions: 30 min before 2.5 mg/kg KCN, (±S.E.), * P < 0.05
in vivo = conditions: dog
Procedure: (§2) Female and male adult mongrel dogs weighing 10 to 15 kg were used. After each dog was anesthetized by intravenous administration of 30 mg/kg of pentobarbital sodium, it was fixed on the back, and the left lower abdominal portion was cut open under artificial respiration to expose the left renal artery. Under heparin sodium treatment, a polyethylene cannula was inserted into the renal artery, and at the other end of the cannula was set a probe for blood flow measurement. Self-perfusion was effected by means of a tube for blood perfusion led from the left femoral artery and connected to the probe, and the renal artery blood flow was measured by means of an electromagnetic blood flow meter.
(§3) The test drug was injected intraarterially into the renal artery.

platelet aggregation = assay: Platelet aggregation inhibitory effect (ADP-induced aggregation of washed platelets); assay type: cell-based, Nippon white rabbits; conditions: Oryctolagus cuniculus, washed rabbit platelets, 10 μM adenosine 5'-diphosphate, drug added 3 min before
Procedure: Male Nippon white rabbits weighing 2.0 to 2.5 kg were used. […] Next, centrifugation was carried out at 140×g for 15 minutes, and the supernatant (platelet-enriched plasma: PRP) was collected. The PRP was centrifuged at 1300×g for 7 minutes. The platelet pellets obtained were washed with a HEPES buffer for platelet washing (pH 6.5) and centrifuged at 1300×g for 7 minutes. […] For assaying platelet aggregation ability, an aggregometer was used, and 10 μl of a test drug was added to 380 μl of the platelet suspension. Three minutes later, 10 μl of a platelet aggregating substance (10 μM adenosine 5'-diphosphate at a final concentration) was added thereto to induce aggregation. […]

[4] = test system: coronary artery / renal artery; assay: Safety coefficient (margin of safety from renal blood flow reduction and coronary artery blood flow increase); design: species or system mongrel dogs
Excerpt: As described above, the 2-alkynyladenosine, which is the active ingredient of the drug of the present invention, has a remarkable platelet aggregation inhibitory effect, blood flow increasing effect of various blood vessels (coronary artery and vertebral artery) and brain protecting effect in combination. […] To describe in more detail, the 2-alkynyladenosine, which is the active ingredient of the present drug, has an extremely high ratio of the primary effects such as platelet aggregation inhibitory effect, blood flow increasing effect of various blood vessels, and brain protecting effect to the side-effects such as atrioventricular block appearance ratio and renal blood flow reduction effect, that is, the 2-alkynyladenosine has an extremely broad margin of safety as compared to the prior compounds. For example, the margins of safety (coefficients) of the 2-alkynyladenosine calculated on the basis of the results in TABLE 2 and TABLE 4 by taking an example of coronary artery blood flow increasing effect as the primary effect and renal blood flow reduction effect as the side-effect are as shown below in TABLE 5. From TABLE 5, it can be understood that the 2-alkynyladenosine is a compound having a broader margin of safety as compared with adenosine.

coronary artery = assay: Coronary artery blood flow increasing effect; assay type: in vivo, mongrel dogs; conditions: Canis lupus familiaris; anesthetized dogs, intraarterial into coronary artery; 100% = reactive hyperemia after 15 s occlusion
Procedure: Adult mongrel dogs weighing 9 to 15 kg were anesthetized with pentobarbital sodium, and the chest of each was opened under artificial respiration. After pericardium excision, the left anterior descending coronary artery was peeled off from the surrounding tissues, a probe for blood flow measurement was set under heparin sodium treatment, and the coronary blood flow was measured by the use of an electromagnetic blood flow meter.
The test drug was injected intraarterially into the coronary artery.

Acute toxicity = conditions: mouse, in vivo; mice, oral administration, estimated
Procedure: (§1) By the use of Slc:ICR mice (7 to 8 weeks old), the acute toxicity tests of Compound 4 (n=5) and Compound 12 (n=13) were conducted.

Slc:ICR mice = assay: Acute toxicity; conditions: mouse, in vivo, po, 1000 mg/kg
Procedure: as §1

[5] = Effect on renal blood flow (renal blood flow reduction effect); conditions: dog, in vivo
Procedure: as §2, §3

Structure (SMILES)	ED50 (vertebral artery) [mg/kg]	atrioventricular block appearance ratio compared with adenosine ([1]; 300 μg/kg intravenous)	Atrioventricular Block Appearance Ratio (Number of Animals Showing Appearance/Number of Animals Used) [1]	Average Survival Time, Normobaric Hypoxia Method (ICR mice [2]; 0.1 mg/kg i.p.)	Average Survival Time, Normobaric Hypoxia Method (ICR mice [2]; 0.3 mg/kg i.p.)	Average Survival Time, Normobaric Hypoxia Method (ICR mice [2]; 1.0 mg/kg i.p., ** P < 0.01)	Average Survival Time, Potassium Cyanide Induced Anoxia Method (ICR mice [3]; 1.0 mg/kg i.p., control (1) 39.8 (±2.4))	ED50 (in vivo) [mg/kg]	IC50 (platelet aggregation) [µM]	Safety Coefficient ([4]; dog, in vivo)	ED50 (coronary artery) [mg/kg]	LD50 (Acute toxicity) [mg/kg]	lethal cases (Slc:ICR mice)	Average Survival Time, Potassium Cyanide Induced Anoxia Method (ICR mice [3]; 30 mg/kg i.p., control (2) 41.8 (±1.9))	Safety Coefficient ([4]; from TABLE 2 coronary artery blood flow increasing effect and TABLE 4 renal blood flow reduction effect)	ED50 [5] [mg/kg]	Average Survival Time, Normobaric Hypoxia Method (ICR mice [2]; 3.0 mg/kg i.p., ** P < 0.01)
CCCCC#Cc1nc(N)c2ncn([C@@H]3O[C@H](CO)[C@@H](O)[C@H]3O)c2n1 [Compound 2, 2-hexynyladenosine]	0.00014	same atrioventricular block appearance ratio as that of adenosine	6/6	171.9 (±22.1) sec.	169.2 (±23.5) sec.	217.3 (±26.2) sec.	50.05 (±3.8) sec.	0.00015	0.061	75							
CCCCCCCCCCCCCCC#Cc1nc(N)c2ncn([C@@H]3O[C@H](CO)[C@@H](O)[C@H]3O)c2n1 [Compound 12, 2-hexadecynyladenosine]	> 0.003		0/6					> 0.003	> 3.1	30	> 0.0001	≥ 1000	no lethal case was recognized	76.7 (±11.7) sec.			
Nc1ncnc2c1ncn2[C@@H]1O[C@H](CO)[C@@H](O)[C@H]1O [Adenosine]	0.00052		6/6						3.2		0.0001				2	0.0002	
CCCCCCCC#Cc1nc(N)c2ncn([C@@H]3O[C@H](CO)[C@@H](O)[C@H]3O)c2n1 [Compound 5]	0.0012		0/6					> 0.003	0.21	> 40							
CCCCCCCCC#Cc1nc(N)c2ncn([C@@H]3O[C@H](CO)[C@@H](O)[C@H]3O)c2n1 [Compound 6]	> 0.003		1/6					> 0.003	0.72	> 20	0.00015						
CCCCCCC#Cc1nc(N)c2ncn([C@@H]3O[C@H](CO)[C@@H](O)[C@H]3O)c2n1 [Compound 4, 2-octynyladenosine]	0.0004		1/6		128.7 (±4.8) sec.	222.9 (±25.9) sec.		> 0.003	0.14	> 375		≥ 1000	no lethal case was recognized				230.6 (±26.7) sec.
